# Assay results taken from ChEMBL document CHEMBL1132003, “2-chloro-3-substituted-1,4-naphthoquinone inactivators of human cytomegalovirus protease” (Bioorg Med Chem Lett, 1999).
# Tests used:
# [1] = system: HCMV protease (assemblin, Human betaherpesvirus 5); assay: Inhibitory activity against HCMV protease by SPA assay at 150 uM concentration
# [2] = biological target: T1, Neutrophil elastase (Homo sapiens, UniProt P08246); assay: Inhibitory activity against human Elastase […]
# T1 sequence (P08246 whole entry): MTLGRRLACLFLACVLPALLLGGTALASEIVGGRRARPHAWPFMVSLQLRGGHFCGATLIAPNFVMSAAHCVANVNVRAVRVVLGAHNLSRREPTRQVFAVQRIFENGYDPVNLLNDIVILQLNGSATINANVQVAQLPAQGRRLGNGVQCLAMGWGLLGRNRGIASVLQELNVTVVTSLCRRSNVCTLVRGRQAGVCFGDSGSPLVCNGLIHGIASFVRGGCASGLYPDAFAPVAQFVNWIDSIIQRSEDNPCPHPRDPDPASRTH
# [3] = system: MRC5; assay: Inhibitory activity against HCMV protease in a plaque assay (strain AD169 in MRC-5 cells); type: functional, cell-based; details: Homo sapiens
# [4] = system: MRC5; assay: Inhibitory activity against HCMV in a plaque assay(strain in MRC-5 cells); type: functional, cell-based; details: Homo sapiens
structure (smiles),measurement,setting,value
CC1(C)CC(=O)C(C2=C(O)C(=O)c3ccccc3C2=O)C(=O)C1,inhibition,[1],11%
CC(=O)C(C(=O)OCc1ccccc1)C1=C(Cl)C(=O)c2ccccc2C1=O (centres undefined),IC50,[2],30 µM
CCOC(=O)C(C(C)=O)C1=C(Cl)C(=O)c2ccccc2C1=O (centres undefined),IC50,[3],10 µM
CC(=O)C(C(=O)OC(C)C)C1=C(Cl)C(=O)c2ccccc2C1=O (centres undefined),IC50,[4],13 µM
